{"source": "patent US11925655B2", "about": "“FAP-activated therapeutic agents, and uses related thereto” (Bach Biosciences, LLC, priority 2014, dated 2024)", "key": {"[1]": {"system": "HEK-Mock cells", "assay": "CellTiter-Blue cell viability assay with HEK-Mock cells", "assay_type": "cell-based", "conditions": "Homo sapiens, 72 h"}, "[2]": {"system": "HEK-mFAP cells", "assay": "CellTiter-Blue cell viability assay with HEK-mFAP cells", "assay_type": "cell-based, human"}, "[3]": {"system": "SK-OV-3", "assay": "CellTiter-Blue cell viability assay: SK-OV-3", "assay_type": "cell-based", "conditions": "Homo sapiens, 5061DOX assay 2, 72 hour incubation"}, "[4]": {"target": "T1, FAP (Mus musculus, UniProt P97321)", "T1 construct": "host or cells: HEK (human embryonic kidney) cells, stably transfected", "T1 sequence (P97321 1-761)": "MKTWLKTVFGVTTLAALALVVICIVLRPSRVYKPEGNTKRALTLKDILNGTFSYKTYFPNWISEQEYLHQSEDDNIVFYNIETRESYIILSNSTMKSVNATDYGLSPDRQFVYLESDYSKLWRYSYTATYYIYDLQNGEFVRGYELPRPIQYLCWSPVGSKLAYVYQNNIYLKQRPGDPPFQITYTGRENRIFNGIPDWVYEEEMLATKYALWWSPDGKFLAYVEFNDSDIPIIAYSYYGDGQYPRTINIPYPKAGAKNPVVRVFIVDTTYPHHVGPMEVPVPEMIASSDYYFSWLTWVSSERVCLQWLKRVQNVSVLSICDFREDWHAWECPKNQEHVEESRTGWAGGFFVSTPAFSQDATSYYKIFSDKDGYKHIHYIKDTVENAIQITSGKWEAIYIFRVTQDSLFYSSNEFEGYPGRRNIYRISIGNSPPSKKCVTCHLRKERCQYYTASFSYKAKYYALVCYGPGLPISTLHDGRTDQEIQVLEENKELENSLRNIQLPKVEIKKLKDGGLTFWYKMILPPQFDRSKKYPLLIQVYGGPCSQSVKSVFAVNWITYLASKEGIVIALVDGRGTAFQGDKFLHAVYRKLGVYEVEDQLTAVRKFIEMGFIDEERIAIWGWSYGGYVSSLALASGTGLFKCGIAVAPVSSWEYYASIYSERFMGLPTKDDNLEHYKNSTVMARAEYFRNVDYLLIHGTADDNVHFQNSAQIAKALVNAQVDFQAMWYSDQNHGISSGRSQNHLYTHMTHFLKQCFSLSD", "assay": "Inhibition of FAP activity on HEK-mFAP cells", "assay_type": "cell-based", "conditions": "5061DOX assay 3"}, "[5]": {"system": "OVCAR-3", "assay": "CellTiter-Blue cell viability assay: OVCAR-3", "assay_type": "cell-based", "conditions": "Homo sapiens, 5061DOX assay 2, 72 hour incubation"}, "[6]": {"system": "MCF-7", "assay": "CellTiter-Blue cell viability assay: MCF-7", "assay_type": "cell-based", "conditions": "Homo sapiens"}, "[7]": {"system": "HEK-mFAP", "assay": "Cytotoxicity against tumor lines: HEK-mFAP", "assay_type": "cell-based", "conditions": "Homo sapiens, compound alone", "experimental": "(§1) Cells from various tumor-derived cell lines were incubated with doxorubicin or 3099DOX, the latter in the presence or absence of FAP, and the EC50 for each was determined."}, "[8]": {"system": "HT-29", "assay": "Cytotoxicity against tumor lines: HT-29", "assay_type": "cell-based", "conditions": "Homo sapiens, compound alone", "experimental": "as §1"}, "[9]": {"system": "HEK-Mock", "assay": "Cytotoxicity against tumor lines: HEK-Mock", "assay_type": "cell-based", "conditions": "Homo sapiens, compound alone", "experimental": "as §1"}, "[10]": {"system": "HPAF-II", "assay": "Cytotoxicity against tumor lines: HPAF-II", "assay_type": "cell-based", "conditions": "Homo sapiens, compound alone", "experimental": "as §1"}, "[11]": {"system": "BxPC-3", "assay": "Cytotoxicity against tumor lines: BxPC-3", "assay_type": "cell-based", "conditions": "Homo sapiens, compound alone", "experimental": "as §1"}, "[12]": {"conditions": "5061DOX assay 2, 72 hour incubation, read-out: EC50 (prodrug alone)"}, "[13]": {"conditions": "read-out: EC50 (prodrug + 25 nM FAP)"}, "[14]": {"conditions": "read-out: EC50 (prodrug + 100 uM 5057)"}, "[15]": {"conditions": "read-out: EC50 (doxorubicin alone)"}}, "note": "Read-outs that look alike come from different tables or passages of the source."}
{"smiles": "COc1cccc2c1C(=O)c1c(O)c3c(c(O)c1C2=O)C[C@@](O)(C(=O)CO)C[C@@H]3OC1CC(NC(=O)[C@@H]2CCCN2C(=O)[C@@H](C)NC(=O)c2ccnc3cccc(Br)c23)C(O)C(C)O1", "note": "(stereo partly drawn) [Compound 5061DOX]", "values": [{"measurement": "EC50", "setting": "[1]; 5061DOX assay 1, 72 hour incubation, read-out: EC50 (prodrug + 25 nM FAP)", "value": 280, "unit": "nM"}, {"measurement": "EC50", "setting": "[1]; 5061DOX assay 1, 72 hour incubation, read-out: EC50 (prodrug + 50 nM PREP)", "value": "> 100000", "unit": "nM"}, {"measurement": "EC50", "setting": "[1]; 5061DOX assay 1, 72 hour incubation, read-out: EC50 (prodrug + 100 uM 5057)", "value": "> 100000", "unit": "nM"}, {"measurement": "EC50", "setting": "[1]; 5061DOX assay 1, 72 hour incubation, read-out: EC50 (prodrug alone)", "value": "> 100000", "unit": "nM"}, {"measurement": "EC50", "setting": "[1]; 5061DOX assay 2, 72 hour incubation, read-out: EC50 (prodrug + 25 nM FAP)", "value": 250, "unit": "nM"}, {"measurement": "EC50", "setting": "[1]; [12]", "value": "> 100000", "unit": "nM"}, {"measurement": "EC50", "setting": "[2]; 5061DOX assay 2, 72 hour incubation, read-out: EC50 (prodrug + 100 uM 5057)", "value": "> 100000", "unit": "nM"}, {"measurement": "EC50", "setting": "[2]; [12]", "value": "> 100000", "unit": "nM"}, {"measurement": "EC50", "setting": "[2]; Homo sapiens, 5061DOX assay 1, 72 hour incubation, read-out: EC50 (prodrug + 100 uM 5057)", "value": "> 100000", "unit": "nM"}, {"measurement": "EC50", "setting": "[2]; Homo sapiens, 5061DOX assay 1, 72 hour incubation, read-out: EC50 (prodrug alone)", "value": "> 100000", "unit": "nM"}, {"measurement": "EC50", "setting": "[3]; [13]", "value": 900, "unit": "nM"}, {"measurement": "EC50", "setting": "[3]; [14]", "value": "> 100000", "unit": "nM"}, {"measurement": "EC50", "setting": "[3]; read-out: EC50 (prodrug alone)", "value": "> 100000", "unit": "nM"}, {"measurement": "IC50", "setting": "[4]", "value": "> 10000", "unit": "nM"}, {"measurement": "EC50", "setting": "[5]; [13]", "value": 1500, "unit": "nM"}, {"measurement": "EC50", "setting": "[5]; [14]", "value": "> 100000", "unit": "nM"}, {"measurement": "EC50", "setting": "[5]; read-out: EC50 (prodrug alone)", "value": "> 100000", "unit": "nM"}, {"measurement": "EC50", "setting": "[6]; MCF7, 5061DOX assay 2, 72 hour incubation, read-out: EC50 (prodrug + 25 nM FAP)", "value": "> 100000", "unit": "nM"}, {"measurement": "EC50", "setting": "[6]; MCF7, 5061DOX assay 2, 72 hour incubation, read-out: EC50 (prodrug + 100 uM 5057)", "value": "> 100000", "unit": "nM"}, {"measurement": "EC50", "setting": "[6]; MCF7, 5061DOX assay 2, 72 hour incubation, read-out: EC50 (prodrug alone)", "value": "> 100000", "unit": "nM"}]}
{"smiles": "COc1cccc2c1C(=O)c1c(O)c3c(c(O)c1C2=O)C[C@@](O)(C(=O)CO)C[C@@H]3O[C@H]1C[C@H](N)[C@H](O)[C@H](C)O1", "note": "[doxorubicin, reference compound]", "values": [{"measurement": "EC50", "setting": "[1]; 5057DOX assay 1, 72 hour incubation, read-out: EC50 (doxorubicin alone)", "value": 36, "unit": "nM"}, {"measurement": "EC50", "setting": "[1]; 5057DOX assay 2, 72 hour incubation, read-out: EC50 (doxorubicin alone)", "value": 34, "unit": "nM"}, {"measurement": "EC50", "setting": "[1]; 5057DOX assay 3, 72 hour incubation, read-out: EC50 (doxorubicin alone)", "value": 95, "unit": "nM"}, {"measurement": "EC50", "setting": "[1]; 5057DOX assay 4, 72 hour incubation, read-out: EC50 (doxorubicin alone)", "value": 92, "unit": "nM"}, {"measurement": "EC50", "setting": "[1]; 5061DOX assay 1, 72 hour incubation, read-out: EC50 (doxorubicin alone)", "value": 92, "unit": "nM"}, {"measurement": "EC50", "setting": "[7]", "value": 200, "unit": "nM"}, {"measurement": "EC50", "setting": "[8]", "value": 400, "unit": "nM"}, {"measurement": "EC50", "setting": "[9]", "value": 50, "unit": "nM"}, {"measurement": "EC50", "setting": "[2]; Homo sapiens, 72 h, 5057DOX assay 2, 72 hour incubation, read-out: EC50 (doxorubicin alone)", "value": 59, "unit": "nM"}, {"measurement": "EC50", "setting": "[2]; Homo sapiens, 72 h, 5057DOX assay 3, 72 hour incubation, read-out: EC50 (doxorubicin alone)", "value": 240, "unit": "nM"}, {"measurement": "EC50", "setting": "[2]; Homo sapiens, 72 h, 5057DOX assay 4, 72 hour incubation, read-out: EC50 (doxorubicin alone)", "value": 420, "unit": "nM"}, {"measurement": "EC50", "setting": "[2]; Homo sapiens, 72 h, 5057DOX assay 8, 72 hour incubation, read-out: EC50 (doxorubicin)", "value": 400, "unit": "nM"}, {"measurement": "EC50", "setting": "[2]; Homo sapiens, 72 h, 5061DOX assay 1, 72 hour incubation, read-out: EC50 (doxorubicin alone)", "value": 420, "unit": "nM"}, {"measurement": "EC50", "setting": "[2]; Homo sapiens, 72 h, 5107DOX assay, 72 hour incubation, read-out: EC50 (doxorubicin)", "value": 390, "unit": "nM"}, {"measurement": "EC50", "setting": "[3]; [15]", "value": 440, "unit": "nM"}, {"measurement": "EC50", "setting": "[10]", "value": 2000, "unit": "nM"}, {"measurement": "EC50", "setting": "[11]", "value": 3100, "unit": "nM"}, {"measurement": "EC50", "setting": "[5]; [15]", "value": 1700, "unit": "nM"}, {"measurement": "EC50", "setting": "[6]; MCF7, 5057DOX assay 5, 72 hour incubation, read-out: EC50 (doxorubicin alone)", "value": 54000, "unit": "nM"}]}
